Data published in article PMC10518257 (Nature Cancer, 2023).
Values joined by “and” are separate entries in the source; they are usually repeats but may differ in a detail not shown here. Identical values can stand only once.

Key:
MMNK1 cholangiocytes = assay: Growth inhibition (alamarBlue, 96 h); type: cell-based, human; details: for raw viability signal (Source Data Fig. 3b-c): MMNK, replicates
HBECp53-EV cells = assay: Growth inhibition (alamarBlue, 96 h); type: cell-based, human; details: for raw viability signal (Source Data Fig. 3b-c): HBEC-EV, replicate sets
[1] = Animal weight of tumor-bearing mice
[2] = test system: ECLC5 luciferase cells implanted intracranially; assay: Intracranial efficacy study; type: in vivo, NSG mice; details: Fig. 8e (middle panel) ECLC5 luminescence; 50 mg/kg BID

With `COc1cc2c(Nc3ccc(Br)cc3F)ncnc2cc1OCC1CCN(C)CC1` [Vandetanib] the IC50 (MMNK1 cholangiocytes; Homo sapiens, read-out: IC50 for Inhibition of Growth (95% CI), MMNK1, alamarBlue, 96 h) was 1900 nM, the “raw viability signal (Source Data Fig. 3b-c)” value (shortened to “raw viability signal”) (MMNK1 cholangiocytes; 0.01 nM) was 15966.6 and 15969.8 and the “raw viability signal” value (MMNK1 cholangiocytes; 0.1 nM) was 15836.6. The “raw viability signal” value (MMNK1 cholangiocytes; 1 nM) was 15572.3, the “raw viability signal” value (MMNK1 cholangiocytes; 10 nM) was 14924.4 and 14679.1 and the “raw viability signal” value (MMNK1 cholangiocytes; 100 nM) was 14912.5 and 14740.1. The “raw viability signal” value (MMNK1 cholangiocytes; 1000 nM) was 12405.8, the “raw viability signal” value (MMNK1 cholangiocytes; 10000 nM) was 1136.86 and 1108.37 and the “raw viability signal” value (HBECp53-EV cells; 0.01 nM) was 25097.6 and 25887.6 and 17676.4. The “raw viability signal” value (HBECp53-EV cells; 0.1 nM) was 26759 and 26118.3 and 17425.7, the “raw viability signal” value (HBECp53-EV cells; 1 nM) was 23471.2 and 28489.7 and 18981.5 and the “raw viability signal” value (HBECp53-EV cells; 10 nM) was 23607.2 and 26549.6 and 18321.2. The “raw viability signal” value (HBECp53-EV cells; 100 nM) was 25750 and 25003, the “raw viability signal” value (HBECp53-EV cells; 1000 nM) was 22139.5 and 31238.9 and 18759.8 and the “raw viability signal” value (HBECp53-EV cells; 10000 nM) was 1428.02 and 2282.52 and 1103.83. The IC50 (HBECp53-EV cells; Homo sapiens, read-out: IC50 for Inhibition of Growth (95% CI), HBECp53-EV, alamarBlue, 96 h) was 3580 nM, the Animal Weight ([1]; ECLC5B xenograft, P = 0.01, animals killed early) was “significant weight loss” and the “Animal Weight” value ([1]; ECLC5 Xenografts, 100 mg/kg QD, treatment day 7, individual animals, 100 mg/kg) was 26 g and 24 g and 22 g (3×). For the same compound, the “Animal Weight” value ([1]; ECLC5 Xenografts, 100 mg/kg QD, treatment day 11, individual animals, 100 mg/kg) was 25 g and 23 g and 22 g (3×), the “Animal Weight” value ([1]; ECLC5 Xenografts, 100 mg/kg QD, treatment day 14, individual animals, 100 mg/kg) was 24 g and 22 g (2×) and 21 g (2×) and the “Animal Weight” value ([1]; ECLC5 Xenografts, 100 mg/kg QD, treatment day 19, individual animals, 100 mg/kg) was 22 g (2×) and 21 g (3×). For the same compound, the “Animal Weight” value ([1]; ECLC5 Xenografts, 100 mg/kg QD, treatment day 22, individual animals) was 20 g, the “Animal Weight” value ([1]; ECLC5 Xenografts, 100 mg/kg QD, treatment day 25, individual animals) was 20 g and the Animal Weight ([1]; LUAD-0057AS1 PDX, 50 mg per kg QD, P = 0.0015) was “significant reduction in animal weight”. The “Animal Weight” value ([1]; LUAD-0057AS1 PDX, 50 mg/kg QD, treatment day 0, individual animals, 50 mg/kg) was 24 g (3×) and 23 g (3×) and 25 g (2×), the “Animal Weight” value ([1]; LUAD-0057AS1 PDX, 50 mg/kg QD, treatment day 3, individual animals, 50 mg/kg) was 21 g (6×) and 22 g and 23 g and the “Animal Weight” value ([1]; LUAD-0057AS1 PDX, 50 mg/kg QD, treatment day 7, individual animals, 50 mg/kg) was 21 g (3×) and 23 g and 22 g (3×) and 20 g. For the same compound, the “Animal Weight” value ([1]; LUAD-0057AS1 PDX, 50 mg/kg QD, treatment day 10, individual animals, 50 mg/kg) was 20 g (2×) and 22 g (2×) and 21 g (4×), the “Animal Weight” value ([1]; LUAD-0057AS1 PDX, 50 mg/kg QD, treatment day 14, individual animals, 50 mg/kg) was 20 g (2×) and 21 g (6×) and the “Animal Weight” value ([1]; LUAD-0057AS1 PDX, 50 mg/kg QD, treatment day 19, individual animals, 50 mg/kg) was 20 g (4×) and 19 g (2×) and 21 g (2×). The “Animal Weight” value ([1]; LUAD-0057AS1 PDX, 50 mg/kg QD, treatment day 23, individual animals, 50 mg/kg) was 19 g and 20 g, the Animal Weight ([1]; NIH-3T3-CCDC6::RET xenografts, 100 mg/kg QD, day 0, 100 mg/kg) was 22 g and 26 g and 24 g and 21 g and 20 g and the Animal Weight ([1]; NIH-3T3-CCDC6::RET xenografts, 100 mg/kg QD, day 2, 100 mg/kg) was 22 g and 23 g and 21 g and 19 g. The Animal Weight ([1]; NIH-3T3-CCDC6::RET xenografts, 100 mg/kg QD, day 5, 100 mg/kg) was 22 g and 26 g and 24 g and 20 g, the Animal Weight ([1]; NIH-3T3-CCDC6::RET xenografts, 100 mg/kg QD, day 8, 100 mg/kg) was 22 g and 25 g and 23 g and 21 g and 19 g and the “Area Under Curve Mean” value [2] was -890991750.
